Columns and labels:
[1] = target: T1, binding of His-XIAP(BIR2)-avi fusion protein to GST-RIPK2 fusion protein (RIPK2/XIAP) (Homo sapiens, UniProt O43353); experiment: RIPK2-XIAP binding competition PPI assay (TR-FRET); conditions: RIPK2/XIAP binding competition PPI assay; for Emax: Amax, read-out: PPI Amax bin; for IC50: read-out: PPI IC50 bin
T1 construct: made in house; host or cells: baculovirus infected Sf9 cells
How it was run: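 Compounds (in DMSO, 100-fold stock) incubated 120 min at 23 °C with 1 nM GST-RIPK2 (aa 1-310) and 25 nM His-XIAP(BIR2 aa 152-231)-avi, plus anti-His-XL665 and anti-GST-Tb, in pH 7.5 Tris buffer. Read-out: 665/520 nm emission ratio. Normalized to no-inhibitor (0%) and 50 nM GSK583 (−100%); Amax binned A–D.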

[2] = target: T2, GST-RIPK2 fusion protein (human RIPK2, amino acids 1-310) (Homo sapiens, UniProt O43353); experiment: RIPK2 binding competition assay (TR-FRET, Tracer 199 displacement); conditions: 10 nM Tracer 199, 1 nM GST-RIPK2, read-out: RIPK2 IC50
T2 construct: made in house; host or cells: baculovirus infected Sf9 cells
T2 sequence (O43353 1-310): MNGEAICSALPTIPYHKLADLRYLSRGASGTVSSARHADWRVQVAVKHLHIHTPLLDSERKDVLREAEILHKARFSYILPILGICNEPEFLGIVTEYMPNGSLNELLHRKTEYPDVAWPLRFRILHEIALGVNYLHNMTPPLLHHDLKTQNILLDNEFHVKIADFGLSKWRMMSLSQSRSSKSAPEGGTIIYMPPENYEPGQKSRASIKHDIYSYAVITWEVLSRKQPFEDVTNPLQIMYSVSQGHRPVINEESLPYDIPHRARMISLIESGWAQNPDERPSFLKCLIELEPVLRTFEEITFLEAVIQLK
How it was run: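 IC50 derived from the TR-FRET emission ratio (665/620 nm, 337 nm excitation), normalized with no-inhibitor and no-enzyme controls. Incubation 45 min at 22 °C, pH 7.5 Tris buffer, with final 10 nM tracer, 1 nM Sf9-expressed GST-RIPK2 fragment (aa 1-310) and 0.5 nM Tb-labelled anti-GST.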

[3] = tested on: NF-κB pathway (SEAP) in THP1-Dual cells; experiment: THP-1 Dual cell SEAP assay (L18-MDP stimulated); format: cell-based; conditions: Homo sapiens, THP1-Dual, read-out: NF-κB THP1 IC50 bin
How it was run: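 IC50 values derive from non-linear regression of % inhibition, calculated against DMSO/L18-MDP-treated wells after media-only subtraction. NF-κB SEAP activity was read at OD 620-655 nm (QUANTI-Blue, 2 h, 37 °C) from supernatants of THP1-Dual cells. Cells had been compound-treated 30 min before overnight (20-24 h) stimulation with 10 ng/mL final L18-MDP.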

T1 sequence (O43353 1-310 limits assumed): as the sequence (O43353 1-310) above

SMILES | Emax [1] | IC50 [1] | IC50 [2] | IC50 [3]
CCS(=O)(=O)Nc1cc(-c2cnc3cc(OC)c(C(=O)N4CCOCC4)cn23)cc(F)c1OC [Example 190, N-(3-fluoro-2-methoxy-5-(7-methoxy-6-(morpholine-4-carbonyl)imidazo[1,2-a]pyridin-3-yl)phenyl) ethanesulfonamide] | 55 to 80% | > 20 nM | > 20 nM | > 1000 nM
CCCS(=O)(=O)Nc1cc(-c2cnc3cc(OC)c(C(=O)N4CCNCC4)cn23)cc(F)c1OC [Example 191, N-(3-fluoro-2-methoxy-5-(7-methoxy-6-(piperazine-1-carbonyl)imidazo[1,2-a]pyridin-3-yl)phenyl)propane-1-sulfonamide] | > 80% | 2.5 to 20 nM | 2.5 to 20 nM | > 1000 nM
CCS(=O)(=O)Nc1cc(-c2cnc3cc(OC)c(C(=O)N4CCC(O)CC4)cn23)cc(F)c1OC [Example 192, N-(3-fluoro-5-(6-(4-hydroxypiperidine-1-carbonyl)-7-methoxyimidazo[1,2-a]pyridin-3-yl)-2-methoxyphenyl) ethanesulfonamide] | > 80% | 2.5 to 20 nM | 2.5 to 20 nM | > 1000 nM
C[C@@H](CO)COc1cn2ncc(-c3cc(F)c(N)nc3F)c2cc1S(=O)(=O)C(C)(C)C [Example 194, (S)-3-((3-(6-amino-2,5-difluoropyridin-3-yl)-5-(tert-butylsulfonyl)pyrazolo [1,5-a]pyridin-6-yl)oxy)-2-methylpropan-1-ol] | > 80% | 1 to 2.5 nM | < 1 nM | 50 to 250 nM
C[C@H](CO)COc1cn2ncc(-c3cc(F)c(N)nc3F)c2cc1S(=O)(=O)C(C)(C)C [Example 195, (R)-3-((3-(6-amino-2,5-difluoropyridin-3-yl)-5-(tert-butylsulfonyl)pyrazolo [1,5-a]pyridin-6-yl)oxy)-2-methylpropan-1-ol] | > 80% | < 1 nM | < 1 nM | < 50 nM
CC(C)(C)S(=O)(=O)c1cn2c(-c3cc(F)c(N)nc3F)cnc2cc1OC[C@H]1C[C@@H](O)C1 [Example 196, (1s,3s)-3-(((3-(6-amino-2,5-difluoropyridin-3-yl)-6-(tert-butylsulfonyl)imidazo [1,2-a]pyridin-7-yl)oxy)methyl) cyclobutan-1-ol] | > 80% | 1 to 2.5 nM | 1 to 2.5 nM | 50 to 250 nM
CC(C)(C)S(=O)(=O)c1cn2c(-c3cc(F)c(N)nc3F)cnc2cc1OC[C@H]1C[C@H](O)C1 [Example 197, (1r,3r)-3-(((3-(6-amino-2,5-difluoropyridin-3-yl)-6-(tert-butylsulfonyl)imidazo [1,2-a]pyridin-7-yl)oxy)methyl) cyclobutan-1-ol] | > 80% | < 1 nM | < 1 nM | 50 to 250 nM
C[C@H](CO)COc1cc2ncc(-c3cc(Cl)c(N)nc3F)n2cc1S(=O)(=O)C(C)(C)C [Example 198, (R)-3-((3-(6-amino-5-chloro-2-fluoropyridin-3-yl)-6-(tert-butylsulfonyl)imidazo [1,2-a]pyridin-7-yl)oxy)-2-methylpropan-1-ol] | > 80% | < 1 nM | 1 to 2.5 nM | 50 to 250 nM
C[C@@H](CO)COc1cn2ncc(-c3cc(Cl)c(N)nc3F)c2cc1S(=O)(=O)C(C)(C)C [Example 199, (S)-3-((3-(6-amino-5-chloro-2-fluoropyridin-3-yl)-5-(tert-butylsulfonyl)pyrazolo [1,5-a]pyridin-6-yl)oxy)-2-methylpropan-1-ol] | > 80% | < 1 nM | < 1 nM | 50 to 250 nM
C[C@H](CO)COc1cn2ncc(-c3cc(Cl)c(N)nc3F)c2cc1S(=O)(=O)C(C)(C)C [Example 200, (R)-3-((3-(6-amino-5-chloro-2-fluoropyridin-3-yl)-5-(tert-butylsulfonyl)pyrazolo [1,5-a]pyridin-6-yl)oxy)-2-methylpropan-1-ol] | > 80% | < 1 nM | < 1 nM | < 50 nM

Source: patent US20260137706A1, “METHODS OF TREATING INFLAMMATORY DISEASES” (INTERLINE THERAPEUTICS, INC., priority 2023, published 2026)
